# Measured values as given in patent publication US12617762B2, “Carboxy derivatives with antiinflamatory properties” (Sitryx Therapeutics Limited, priority 2019, dated 2026).
# Where two headings read alike, the source gives them in different places.
# Key:
# [1] = tested on: NRF2 (nuclear factor erythroid 2-related factor 2); test: NRF2 +/-GSH activation assay (DiscoverX PathHunter NRF2 translocation kit, U2OS cells); type: cell-based
# In short: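 U2OS PathHunter eXpress cells, 24 h post-plating, treated with compound ±GSH (+GSH arm: 30 min compound–GSH pre-incubation, 6 mM working GSH), then 6 h at 37 °C. NRF2 nuclear translocation read by enzyme-fragment-complementation chemiluminescence; % activation normalised to DMF high and untreated low controls.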
# [2] = tested on: IL-6 cytokine output from THP-1s; test: THP-1 AlphaLISA IL-6 cytokine inhibition assay; type: cell-based; details: Homo sapiens, LPS then nigericin
# Procedure: The cytokine inhibition profiles of compounds of formula (I) were determined in a differentiated THP-1 cell assay. All assays were performed in RPMI-1640 growth medium (Gibco), supplemented with 10% fetal bovine serum (FBS; Gibco), 1% penicillin-streptomycin and 1% sodium pyruvate unless specified otherwise. The IL-1β cytokine inhibition assay was run in a background of differentiated THP-1 cells as described below. All reagents described were from Sigma-Aldrich unless specified otherwise. Compounds were prepared as 10 mM DMSO stocks.
# THP-1 cells were expanded as a suspension up to 80% confluence in appropriate growth medium. Cells were harvested, suspended, and treated with an appropriate concentration of phorbol 12-myristate 13-acetate (PMA) over a 72 hr period (37° C./5% CO2).
# Following 72 hrs of THP-1 cell incubation, cellular medium was removed and replaced with fresh growth media containing 1% of FBS. Working concentrations of compounds were prepared separately in 10% FBS treated growth medium and pre-incubated with the cells for 30 minutes (37° C./5% CO2). Following the 30 minute compound pre-incubation, THP-1s were treated with an appropriate concentration of LPS and the cells were subsequently incubated for a 24 hr period (37° C./5% CO2). An appropriate final concentration of Nigericin was then dispensed into the THP-1 plates and incubated for 1 hour (37° C./5% CO2) before THP-1 supernatants were harvested and collected in separate polypropylene 96-well holding plates.
# Reagents from an IL-1β and IL-6 commercial kit (Perkin Elmer) were prepared and run according to the manufacturer's instructions. Subsequently, fluorescence signal detection in a microplate reader was measured (EnVision® Multilabel Reader, Perkin Elmer).
# Percentage inhibition was calculated per cytokine by normalising the sample data to the high and low controls used within each plate (+/− LPS respectively).
# [3] = tested on: IL-1β cytokine output from THP-1s; test: THP-1 AlphaLISA IL-1β cytokine inhibition assay; type: cell-based; details: for IC50: Homo sapiens; for IL-1β lowering, result in words: THP-1 IL-1β assay
# In short: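 THP-1 cells differentiated with PMA for 72 h, pre-incubated with compound 30 min, then LPS-primed 24 h and Nigericin-stimulated 1 h (37° C./5% CO2). Supernatant IL-1β measured by AlphaLISA; percentage inhibition normalised to +LPS (high) and −LPS (low) plate controls.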
# [4] = Hepatocyte stability assay, mouse; type: in vitro ADME; details: mouse, hepatocytes; for hepatocyte CLint at 10 μM: Hepatocyte stability Clint; for half-life at 10 μM: Hepatocyte stability T½
# In short: (§1)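 Cells and buffer-only plates are preincubated 10 min at 37° C; 10 μM test compound is then added to hepatocytes (0.5×10^6 cells/mL) and sampled to 60 min. Aliquots are crashed into acetonitrile, spun, and measured by LC-MS/MS to calculate intrinsic clearance from the decline of parent.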
# [5] = Hepatocyte stability assay, human; type: in vitro ADME; details: human, hepatocytes; for hepatocyte CLint at 10 μM: Hepatocyte stability Clint; for half-life at 10 μM: Hepatocyte stability T½
# In short: as §1
# [6] = +GSH, 30 minute compound-GSH pre-incubation, read-out: NRF2 activation +GSH EC50
# [7] = +GSH, normalised to DMF high control
# [8] = −GSH, U2OS PathHunter cells, 6 hours compound treatment, read-out: NRF2 activation −GSH EC50
# [9] = −GSH, normalised to DMF high control
# [10] = THP-1, differentiated THP-1 cells
# [11] = THP-1, differentiated THP-1 cells, LPS then nigericin
Compound,"EC50 [1, 6]","NRF2 activation +GSH Emax [1, 7]","EC50 [1, 8]","NRF2 activation −GSH Emax [1, 9]","IC50 [2, 10]","IC50 [3, 11]","IL-1β lowering, result in words [3]",IC50 ([2]; differentiated THP-1 cells),hepatocyte CLint at 10 μM [4],half-life at 10 μM [4],hepatocyte CLint at 10 μM [5],half-life at 10 μM [5],"EC50 ([1]; −GSH, Table 5 exo vs endo comparison, read-out: −GSH EC50)","−GSH Emax ([1]; −GSH, normalised to DMF high control, Table 5 exo vs endo comparison)","IC50 ([3]; THP-1, Table 3, head to head comparison of exo vs endo double bond compounds)"
"C=C(Cc1nc(C(C)(C)CCCCCC)no1)C(=O)O [Example 26, 2-((3-(2-methyloctan-2-yl)-1,2,4-oxadiazol-5-yl)methyl)acrylic acid]",35.6 µM,137%,27.3 µM,205%,22.6 µM,36.3 µM,,,,,,,,,
"C=C(Cc1nc(C(C)(C)c2ccc(Cl)cc2)no1)C(=O)O [Example 30, 2-((3-(2-(4-chlorophenyl)propan-2-yl)-1,2,4-oxadiazol-5-yl)methyl)acrylic acid]",> 100 µM,12%,> 100 µM,36%,> 100 µM,53.3 µM,not effective,,,,,,,,
"C=C(Cc1nc(CC2CCCCC2)no1)C(=O)O [Example 32, 2-((3-(cyclohexylmethyl)-1,2,4-oxadiazol-5-yl)methyl)acrylic acid]",> 100 µM,35%,50.1 µM,46%,> 100 µM,> 100 µM,not effective,,,,,,,,
"C#CCCCCCCc1noc(CC(=C)C(=O)O)n1 [Example 35, 2-((3-(oct-7-yn-1-yl)-1,2,4-oxadiazol-5-yl)methyl)acrylic acid]",48.9 µM,55%,43.6 µM,91%,34.6 µM,> 100 µM,not effective,,,,,,,,
"C=C(Cc1nc(CCc2ccc(CC)cc2)no1)C(=O)O [Example 41, 2-((3-(4-ethylphenethyl)-1,2,4-oxadiazol-5-yl)methyl)acrylic acid]",39.7 µM,103%,31.7 µM,135%,22.5 µM,45.4 µM,,,,,,,,,
"C=C(Cc1nc(Cc2ccc(C3(C(F)(F)F)CC3)cc2)no1)C(=O)O [Example 48, 2-((3-(4-(1-(trifluoromethyl)cyclopropyl)benzyl)-1,2,4-oxadiazol-5-yl)methyl)acrylic acid]",50.3 µM,61%,31 µM,120%,38.5 µM,40.2 µM,,,,,,,,,
"C=C(Cc1ncc(CCCCCCCC)s1)C(=O)O [Example 55, 2-((5-octylthiazol-2-yl)methyl)acrylic acid]",17.8 µM,163%,13.3 µM,276%,4.2 µM,14.9 µM,,,,,,,,,
"C=C(Cc1nc(CCC#CCCCC)no1)C(=O)O [Example 57, 2-((3-(oct-3-yn-1-yl)-1,2,4-oxadiazol-5-yl)methyl)acrylic acid]",49.9 µM,56%,41.1 µM,102%,24.1 µM,> 100 µM,not effective,,,,,,,,
"C=C(Cc1nc(CCCCCCCC(F)F)no1)C(=O)O [Example 58, 2-((3-(8,8-difluorooctyl)-1,2,4-oxadiazol-5-yl)methyl)acrylic acid]",30.6 µM,105%,26.4 µM,149%,16 µM,36.9 µM,,,,,,,,,
"C=C(Cc1nc(CCCCCC(C)C)no1)C(=O)O [Example 68, 2-((3-(6-methylheptyl)-1,2,4-oxadiazol-5-yl)methyl)acrylic acid]",,,,,5.7 µM,19.5 µM,,,,,,,,,
"C=C(Cc1nc(Cc2ccc(CC(C)(C)C)cc2)no1)C(=O)O [Example 69, 2-((3-(4-neopentylbenzyl)-1,2,4-oxadiazol-5-yl)methyl)acrylic acid]",,,,,10.1 µM,48.6 µM,,,,,,,,,
"C=C(Cc1nc(-c2ccc(C(F)(F)CC)cc2)no1)C(=O)O [Example 71, 2-((3-(4-(1,1-difluoropropyl)phenyl)-1,2,4-oxadiazol-5-yl)methyl)acrylic acid]",37.1 µM,146%,28.8 µM,178%,8.3 µM,54.9 µM,,,,,,,,,
"C=C(Cc1nc(-c2ccc(CCC(F)(F)F)cc2)no1)C(=O)O [Example 73, 2-((3-(4-(3,3,3-trifluoropropyl)phenyl)-1,2,4-oxadiazol-5-yl)methyl)acrylic acid]",,,,,10.4 µM,> 100 µM,not effective,,,,,,,,
"C=C(Cc1nc(-c2ccc(CCC3CC3)cc2)no1)C(=O)O [Example 76, 2-((3-(4-(2-cyclopropylethyl)phenyl)-1,2,4-oxadiazol-5-yl)methyl)acrylic acid]",,,,,5.1 µM,28.2 µM,,,,,,,,,
"C=C(Cc1nc(C2(c3ccc(OC(F)F)cc3)CC2)no1)C(=O)O [Example 78, 2-((3-(1-(4-(difluoromethoxy)phenyl)cyclopropyl)-1,2,4-oxadiazol-5-yl)methyl)acrylic acid]",,,,,> 100 µM,24.3 µM,,,,,,,,,
"C=C(Cc1nc(C2(c3ccc(OCCCC)cc3)CC2)no1)C(=O)O [Example 80, 2-((3-(1-(4-butoxyphenyl)cyclopropyl)-1,2,4-oxadiazol-5-yl)methyl)acrylic acid]",,,,,9.6 µM,37.2 µM,,,,,,,,,
"C=C(Cc1nc(CCCCCC(F)(F)CC(F)(F)F)no1)C(=O)O [Example 87, 2-((3-(6,6,8,8,8-pentafluorooctyl)-1,2,4-oxadiazol-5-yl)methyl)acrylic acid]",48.6 µM,70%,41.4 µM,95%,31.7 µM,> 100 µM,not effective,,,,,,,,
"C=C(Cc1nc(-c2ccc(CCCC)cc2)co1)C(=O)O [Example 101, 2-((4-(4-butylphenyl)oxazol-2-yl)methyl)acrylic acid]",,,,,4.6 µM,52.4 µM,,,,,,,,,
C=C(Cc1ncc(CCCCCCCC)cn1)C(=O)O [Example 106],24.6 µM,101%,18.6 µM,143%,,67.8 µM,,39.3 µM,,,,,,,
"C=C(Cc1nc(C2(c3ccc(OC)c(Cl)c3)CC2)no1)C(=O)O [Example 140, 2-((3-(1-(3-chloro-4-methoxyphenyl)cyclopropyl)-1,2,4-oxadiazol-5-yl)methyl)acrylic acid]",,,,,,29.5 µM,,> 100 µM,,,,,,,
"C=C(Cc1nc(C2(c3ccc(C)c(Cl)c3)CC2)no1)C(=O)O [Example 141, 2-((3-(1-(3-chloro-4-methylphenyl)cyclopropyl)-1,2,4-oxadiazol-5-yl)methyl)acrylic acid]",20.1 µM,100%,16.7 µM,177%,,> 56.2 µM,,32.4 µM,,,,,,,
"C=C(Cc1nc(-c2ccc(OCCCC(F)(F)F)cc2)no1)C(=O)O [Example 146, 2-((3-(4-(4,4,4-trifluorobutoxy)phenyl)-1,2,4-oxadiazol-5-yl)methyl)acrylic acid]",14.6 µM,125%,13.1 µM,177%,,> 31.6 µM,,,194 µL/min/1e6 cells,8 min,36 µL/min/1e6 cells,41 min,,,
CCCCOc1ccc(-c2noc(/C=C(\C)C(=O)O)n2)cc1 [Example 167],> 100 µM,15%,> 100 µM,100%,,> 100 µM,,,331 µL/min/1e6 cells,6 min,35 µL/min/1e6 cells,35 min,> 100 µM,100%,> 100 µM
